Assay: xn = mol fraction of the nth substance listed

CC(C)CO + C1CCCCC1
303.15 K, 101.33 kPa
Settings | viscosity [mPa·s]
x2 = 0.1485 | 1.976
x2 = 0.2985 | 1.513
x2 = 0.4515 | 1.185
x2 = 0.6051 | 0.962
x2 = 0.7417 | 0.839
x2 = 0.8981 | 0.762

OCCOCCOCCOCCOCCOCCOCCOCCOCCO + O
viscosity [mPa·s], 100 kPa
Settings | 293.15 K | 298.15 K | 303.15 K | 308.15 K | 313.15 K | 318.15 K | 323.15 K
x2 = 0.093 | 124.5 | 93.99 | 72.59 | 57.45 | 46.04 | 37.51 | 30.97
x2 = 0.12 | 121.6 | 92.08 | 71.18 | 56.4 | 45.22 | 36.83 | 30.41
x2 = 0.187 | 120.7 | 91.49 | 70.11 | 55.25 | 44.27 | 36.03 | 29.76
x2 = 0.256 | 117.4 | 88.73 | 68.34 | 54.28 | 43.47 | 35.36 | 29.19

Cc1ccccc1O + Cc1cccc(O)c1
viscosity [mPa·s]
Settings | 298.15 K | 313.15 K | 323.15 K
101 kPa, x1 = 0.1537 | 12.16 | – | –
101 kPa, x1 = 0.3061 | 11.09 | – | –
101 kPa, x1 = 0.3536 | 10.75 | – | –
101 kPa, x1 = 0.3954 | 10.5 | – | –
101 kPa, x1 = 0.506 | 9.939 | – | –
101 kPa, x1 = 0.6371 | 9.208 | – | –
101 kPa, x1 = 0.7608 | 8.582 | – | –
101 kPa, x1 = 0.8803 | 8.086 | – | –
101.3 kPa, x2 = 0.1 | – | 4.379 | 3.086
101.3 kPa, x2 = 0.2 | – | 4.539 | 3.145
101.3 kPa, x2 = 0.3 | – | 4.689 | 3.235
101.3 kPa, x2 = 0.4 | – | 4.861 | 3.32
101.3 kPa, x2 = 0.5 | – | 5.048 | 3.417
101.3 kPa, x2 = 0.6 | – | 5.248 | 3.543
101.3 kPa, x2 = 0.7 | – | 5.462 | 3.666
101.3 kPa, x2 = 0.8 | – | 5.693 | 3.805
101.3 kPa, x2 = 0.9 | – | 5.966 | 3.949

CCCCCOC(C)=O + CC(=O)O
viscosity [mPa·s], 101 kPa
Settings | x1 = 0.0945 | x1 = 0.2018 | x1 = 0.3035 | x1 = 0.4048 | x1 = 0.4599 | x1 = 0.5117 | x1 = 0.6074 | x1 = 0.6957 | x1 = 0.7878 | x1 = 0.8912
298.15 K | 1.055 | 1.049 | 0.994 | 0.978 | 1.002 | 1.006 | 0.98 | 0.974 | 0.917 | 0.881
313.15 K | 0.853 | 0.831 | 0.799 | 0.781 | 0.797 | 0.798 | 0.777 | 0.772 | 0.734 | 0.708

CCCCCOC(C)=O + CCCCCC
303.15 K, 101.3 kPa
Settings | viscosity [mPa·s]
x1 = 0.1004 | 0.303
x1 = 0.2054 | 0.3329
x1 = 0.298 | 0.3626
x1 = 0.403 | 0.4007
x1 = 0.5009 | 0.443
x1 = 0.6017 | 0.4937
x1 = 0.6958 | 0.5456
x1 = 0.8016 | 0.6101
x1 = 0.8978 | 0.6752

CCCCCOC(C)=O + ClC(Cl)C(Cl)Cl
303.15 K, 101.3 kPa
Settings | viscosity [mPa·s]
x1 = 0.1051 | 1.473
x1 = 0.2031 | 1.446
x1 = 0.3044 | 1.401
x1 = 0.4008 | 1.34
x1 = 0.5038 | 1.256
x1 = 0.598 | 1.165
x1 = 0.7002 | 1.061
x1 = 0.7935 | 0.9582
x1 = 0.8927 | 0.8565

O=C1OCCO1 + CNC(C)=O
313.15 K, 101.33 kPa
Settings | viscosity [mPa·s]
x1 = 0.0747 | 2.732
x1 = 0.1786 | 2.456
x1 = 0.2841 | 2.246
x1 = 0.3817 | 2.099
x1 = 0.4799 | 1.984
x1 = 0.5724 | 1.903
x1 = 0.6726 | 1.845
x1 = 0.7707 | 1.814
x1 = 0.869 | 1.824
x1 = 0.9684 | 1.893

C=CC(=O)OC + C1CCOC1
viscosity [mPa·s], 101 kPa
Settings | 293.15 K | 298.15 K | 303.15 K | 308.15 K | 313.15 K | 318.15 K
x2 = 0.0773 | 0.4982 | 0.4567 | 0.4181 | 0.3852 | 0.3553 | 0.3283
x2 = 0.1554 | 0.4934 | 0.454 | 0.4172 | 0.3854 | 0.3561 | 0.3294
x2 = 0.2064 | 0.4907 | 0.4527 | 0.4169 | 0.3858 | 0.3569 | 0.3304
x2 = 0.2545 | 0.4885 | 0.4517 | 0.417 | 0.3865 | 0.3579 | 0.3315
x2 = 0.3215 | 0.486 | 0.4508 | 0.4174 | 0.3878 | 0.3596 | 0.3333
x2 = 0.3989 | 0.4838 | 0.4505 | 0.4186 | 0.3898 | 0.362 | 0.3358
x2 = 0.4655 | 0.4826 | 0.4507 | 0.4201 | 0.392 | 0.3644 | 0.3382
x2 = 0.53 | 0.4819 | 0.4515 | 0.422 | 0.3945 | 0.3671 | 0.3409
x2 = 0.6023 | 0.4819 | 0.453 | 0.4246 | 0.3977 | 0.3706 | 0.3442
x2 = 0.6834 | 0.4826 | 0.4553 | 0.4282 | 0.4018 | 0.3748 | 0.3483
x2 = 0.7632 | 0.4841 | 0.4583 | 0.4323 | 0.4064 | 0.3795 | 0.3528
x2 = 0.8468 | 0.4865 | 0.4622 | 0.4372 | 0.4118 | 0.3849 | 0.3579
x2 = 0.9316 | 0.4899 | 0.467 | 0.4429 | 0.4177 | 0.3909 | 0.3634

CC(C)CO + COC(C)(C)C
298.15 K, 101 kPa
Settings | viscosity [mPa·s]
x2 = 0.1007 | 2.39
x2 = 0.2009 | 1.72
x2 = 0.2996 | 1.27
x2 = 0.3951 | 0.987
x2 = 0.502 | 0.776
x2 = 0.6038 | 0.637
x2 = 0.7002 | 0.536
x2 = 0.8022 | 0.449
x2 = 0.9008 | 0.385

CC1CCCO1 (centres undefined) + O=C1CCCC1
298.15 K, 101 kPa
Settings | viscosity [mPa·s]
x1 = 0.0212 | 1.103
x1 = 0.0637 | 1.061
x1 = 0.1277 | 1.001
x1 = 0.1917 | 0.944
x1 = 0.2563 | 0.89
x1 = 0.3212 | 0.84
x1 = 0.3856 | 0.792
x1 = 0.4507 | 0.747
x1 = 0.5157 | 0.705
x1 = 0.5812 | 0.665
x1 = 0.6466 | 0.628
x1 = 0.7069 | 0.596
x1 = 0.7785 | 0.56
x1 = 0.8445 | 0.529
x1 = 0.9107 | 0.5
x1 = 0.9775 | 0.472

C=CC(=O)OCCCC + CCCCCCCCCCO
viscosity [mPa·s], 101.3 kPa
Settings | x1 = 0.0646 | x1 = 0.1907 | x1 = 0.2493 | x1 = 0.3612 | x1 = 0.4732 | x1 = 0.665 | x1 = 0.756 | x1 = 0.8402 | x1 = 0.9227 | x1 = 0.9615
298.15 K | 9.073 | 5.873 | 4.998 | 3.536 | 2.535 | 1.653 | 1.303 | 1.07 | 0.905 | 0.843
308.15 K | 6.488 | 4.404 | 3.679 | 2.762 | 2.073 | 1.301 | 1.115 | 0.897 | 0.781 | 0.723

CCCCCOC(C)=O + ClC(Cl)Cl
303.15 K, 101.3 kPa
Settings | viscosity [mPa·s]
x1 = 0.0995 | 0.5918
x1 = 0.2017 | 0.6667
x1 = 0.2998 | 0.725
x1 = 0.3984 | 0.7678
x1 = 0.5049 | 0.7991
x1 = 0.5912 | 0.8048
x1 = 0.7005 | 0.8002
x1 = 0.8153 | 0.7844
x1 = 0.8911 | 0.7722

CCCCCOC(C)=O + C=Cc1ccccc1
Settings | viscosity [mPa·s]
298.15 K, 101 kPa, x2 = 0.103 | 0.802

CCCCCC + CO
298.15 K, 101.33 kPa
Settings | viscosity [mPa·s]
x2 = 0.0532 | 0.313
x2 = 0.0601 | 0.313
x2 = 0.138 | 0.317
x2 = 0.154 | 0.319
x2 = 0.2491 | 0.334
x2 = 0.8139 | 0.49
x2 = 0.8529 | 0.502
x2 = 0.8644 | 0.506
x2 = 0.9199 | 0.525
x2 = 0.9494 | 0.539
x2 = 0.9771 | 0.547

O=C1CCCN1C1CCCCC1 + CO
298.15 K, 100 kPa
Settings | viscosity [mPa·s]
x1 = 0.0094 | 0.589
x1 = 0.0192 | 0.625
x1 = 0.0288 | 0.657
x1 = 0.0387 | 0.69
x1 = 0.0495 | 0.727
x1 = 0.053 | 0.743
x1 = 0.067 | 0.804
x1 = 0.0764 | 0.832
x1 = 0.0858 | 0.866
x1 = 0.0883 | 0.874
x1 = 0.094 | 0.91
x1 = 0.191 | 1.366
x1 = 0.2811 | 1.92
x1 = 0.3806 | 2.649
x1 = 0.48 | 3.553
x1 = 0.5758 | 4.526
x1 = 0.6836 | 5.807
x1 = 0.7845 | 7.171
x1 = 0.8973 | 8.652
x1 = 0.9035 | 8.749
x1 = 0.9182 | 8.971
x1 = 0.9294 | 9.118
x1 = 0.9448 | 9.356
x1 = 0.9517 | 9.496
x1 = 0.965 | 9.7
x1 = 0.9749 | 9.843
x2 = 0.0157 | 10

Reference: the CheMixHub viscosity set
